In the assay the target is T1, ASGPR (Homo sapiens, UniProt P07306).
T1 sequence (P07306 1-291): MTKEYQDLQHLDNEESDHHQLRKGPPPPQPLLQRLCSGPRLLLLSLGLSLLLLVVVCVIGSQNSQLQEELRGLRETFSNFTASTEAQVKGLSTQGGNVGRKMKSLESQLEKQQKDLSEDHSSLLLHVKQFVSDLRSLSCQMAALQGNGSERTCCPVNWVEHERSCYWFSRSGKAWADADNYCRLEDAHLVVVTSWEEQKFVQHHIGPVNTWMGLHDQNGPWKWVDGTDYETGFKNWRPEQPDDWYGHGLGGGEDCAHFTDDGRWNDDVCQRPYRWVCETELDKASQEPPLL
The experiment in a line: Affinity to ASGPR by surface plasmon resonance (SPR). In general terms: Surface plasmon resonance follows binding to a sensor surface in real time, without labels.

Procedure: Biotinylated ASGPR (20 μg/ml) was immobilized on SA sensor chips (GE Healthcare) at flow rate of 5 μl/min for 90 sec reaching an immobilization level ranging from 500-3000 resonance units (RU). The running buffer was 50 mM HEPES, pH7.5, 150 mM NaCl, 50 mM CaCl2), 0.01% P20, 3% DMSO. The concentration of compounds vary from 2 mM to 5 nM depending on Kd values. The compounds are diluted 2 or 3-fold with 8 concentration points. Solutions containing serially diluted compounds are injected at a flow rate of 40 μL/min for 150-300 sec followed by a 90-300 sec dissociation phase for each concentration. The surface was regenerated using 50 mM HEPES, pH 7.5, 150 mM NaCl, 5 mM EDTA, 0.01% P20, 3% DMSO.
Data was processed using the analysis software in Biacore 8K to perform background subtraction, double referencing, and solvent correction. Values of affinity expressed as the dissociation constants (Kd) were determined by fitting the steady state binding responses (RUs) as a function of the concentration ([Compound]) using the following equation: RU=RUmax/(KD+[Compound]), where RU max is the calculated maximal response. Where appropriate double-referenced data were fit to using a 1:1 binding model for kinetic analysis.

For the compound `CN(C[C@H]1OC[C@H](Nc2cncc(C(F)(F)F)n2)[C@@H](O)[C@H]1O)c1ccccc1` [A99, (2R,3R,4R,5S)-2-((methyl(phenyl)amino)methyl)-5-((6-(trifluoromethyl)pyrazin-2-yl)amino)tetrahydro-2H-pyran-3,4-diol], the Kd (as a rule, the free concentration of one partner at which half of the binding sites on the other are occupied at equilibrium, for simple one-to-one binding) was less than 1 µM.

The compound `O=C(O)COc1ccc(COC[C@H]2OC[C@H](Nc3cncc(C(F)(F)F)n3)[C@@H](O)[C@H]2O)cc1` [A19, 2-(4-((((2R,3R,4R,5S)-3,4-dihydroxy-5-((6-(trifluoromethyl)pyrazin-2-yl)amino)tetrahydro-2H-pyran-2-yl)methoxy)methyl)phenoxy)acetic acid] yielded a Kd of less than 0.1 µM. Next, `OC[C@@]12CO[C@@H](O1)[C@H](Nc1nc3ccccc3o1)[C@@H](O)[C@H]2O` [A45, (1S,2R,3R,4R,5S)-4-(benzo[d]oxazol-2-ylamino)-1-(hydroxymethyl)-6,8-dioxabicyclo[3.2.1]octane-2,3-diol]: 1 to 10 µM; `C=CCO[C@H]1O[C@H](CN=[N+]=[N-])[C@H](O)[C@H](O)[C@H]1Nc1nccc(C(F)(F)F)n1` [A72, (2R,3R,4R,5R,6S)-6-(allyloxy)-2-(azidomethyl)-5-((4-(trifluoromethyl)pyrimidin-2-yl)amino)tetrahydro-2H-pyran-3,4-diol]: less than 1 µM. Next, `O[C@@H]1[C@H](O)[C@@H](Nc2nccc(C(F)(F)F)n2)CO[C@@H]1Cn1ccnn1` [A67, (2R,3R,4R,5S)-2-((1H-1,2,3-triazol-1-yl)methyl)-5-((4-(trifluoromethyl)pyrimidin-2-yl)amino)tetrahydro-2H-pyran-3,4-diol]: less than 1 µM; `N#Cc1ccnnc1N[C@H]1[C@H]2OC[C@](CO)(O2)[C@H](O)[C@@H]1O` [A39, 3-[[(1S,2R,3R,4R,5S)-2,3-dihydroxy-1-(hydroxymethyl)-6,8-dioxabicyclo[3.2.1]octan-4-yl]amino]pyridazine-4-carbonitrile]: 1 to 10 µM. For `COc1cc(N[C@H]2[C@H]3OC[C@](CO)(O3)[C@H](O)[C@@H]2O)nc(C(F)(F)F)n1` [A47, (1S,2R,3R,4R,5S)-1-(hydroxymethyl)-4-((6-methoxy-2-(trifluoromethyl)pyrimidin-4-yl)amino)-6,8-dioxabicyclo[3.2.1]octane-2,3-diol] the value was less than 1 µM; for `OC[C@H]1OC[C@H](Nc2ncnn3cccc23)[C@@H](O)[C@H]1O` [A49, (2R,3R,4R,5S)-2-(hydroxymethyl)-5-(pyrrolo[2,1-f][1,2,4]triazin-4-ylamino)tetrahydro-2H-pyran-3,4-diol], 1 to 10 µM; for `[N-]=[N+]=NC[C@@]12CO[C@@H](O1)[C@H](Nc1nc(Cl)ns1)[C@@H](O)[C@H]2O` [A74, (1S,2R,3R,4R,5S)-1-(azidomethyl)-4-((3-chloro-1,2,4-thiadiazol-5-yl)amino)-6,8-dioxabicyclo[3.2.1]octane-2,3-diol], less than 1 µM. Compound `OCc1cnn(C[C@H]2OC[C@H](Nc3nccc(C(F)(F)F)n3)[C@@H](O)[C@H]2O)c1` [A62, (2R,3R,4R,5S)-2-((4-(hydroxymethyl)-1H-pyrazol-1-yl)methyl)-5-((4-(trifluoromethyl)pyrimidin-2-yl)amino)tetrahydro-2H-pyran-3,4-diol] displayed an equilibrium dissociation constant (Kd) of 1 to 10 µM. For `C=CCO[C@H]1O[C@H](CO)[C@H](O)[C@H](O)[C@H]1N` [A52, (2R,3R,4R,5R,6S)-6-(allyloxy)-5-amino-2-(hydroxymethyl)tetrahydro-2H-pyran-3,4-diol] the value was greater than 20 µM; for `[N-]=[N+]=NCCCCCC(=O)NC(COCCC(=O)NCCOCCOCCOCCOC[C@H]1OC[C@H](Nc2cncc(C(F)(F)F)n2)[C@@H](O)[C@H]1O)COCCC(=O)NCCOCCOCCOCCOC[C@H]1OC[C@H](Nc2cncc(C(F)(F)F)n2)[C@@H](O)[C@H]1O` [A2, 3,3′-((2-(6-azidohexanamido)propane-1,3-diyl)bis(oxy))bis(N-(1-((2R,3R,4R,5S)-3,4-dihydroxy-5-((6-(trifluoromethyl)pyrazin-2-yl)amino)tetrahydro-2H-pyran-2-yl)-2,5,8,11-tetraoxatridecan-13-yl)propanamide)], less than 0.1 µM.

(Values after patent US12091402B2 (Avilar Therapeutics, Inc., priority 2021, dated 2024).)
